Experimental data: patent publication US10434090B2, “Pharmaceutical composition containing a hypomethylating agent and a histone deacetylase inhibitor” (NIMBLE EPITECH, LLC, priority 2009, dated 2019)

Settings: reservoir patch, drug at saturation, cladribine in ethanol/DMSO (50/50), entinostat in ethanol/water (2/1), human cadaver epidermis
Description: A feasibility study of transdermal delivery of cladribine and HDAC inhibitors was conducted using the Franz Cell Method. The scope of the ongoing study is to determine the passive transdermal diffusion rate (passive perfusion) of cladribine and multiple HDAC inhibitors for creation of continuous transdermal delivery for induction therapy.
Cladribine was mixed with about 2 percent of a concentration of a thickener comprising a cellulose component to thicken the cladribine composition.
All testing was performed in an incubator at 32 degrees Celsius.
Round pieces of human cadaveric skin were cut out. The patches were placed on top of the skin and mounted in the Franz Cells between the donor compartment and the receiver compartments of the cell. The two compartments were tightened together with a screw-on pinch clamp.
The results of transdermal flux were graphed as a function of time.

Nc1nc(Cl)nc2c1ncn2[C@H]1C[C@H](O)[C@@H](CO)O1 [Cladribine]
lag time before sustained transdermal delivery: 10 h
optimum transdermal flux (32 degrees Celsius, 24 hour): 170 μg/cm^2/day
